Results taken from article PMC4387272, “Pharmacokinetic, pharmacodynamic and biomarker evaluation of transforming growth factor-β receptor I kinase inhibitor, galunisertib, in phase 1 study in patients with advanced cancer” (Investigational new drugs, 2014).
Read-outs that look alike come from different tables or passages of the source.

Assay: Non-compartmental plasma pharmacokinetics of galunisertib in patients (LC-MS/MS)
Assay type: in vivo, Human
Details: for Cmax / AUC(0-inf): po
Procedure: Human plasma samples obtained during this study were analyzed at PharmaNet USA, Inc. Princeton, New Jersey, USA. The samples were analyzed for galunisertib levels using 2 validated liquid chromatography with tandem mass spectrometry methods. For the high-range method (PharmaNet USA, Inc. SOP TM.589), the lower limit of quantification was 5.000 ng/mL and the upper limit of quantification was 1000.000 ng/mL. The intra-assay accuracy (% relative error) during validation ranged from 1.800 to 10.222 %. The intra-assay precision (% relative standard deviation) during validation ranged from 3.119 to 18.389 %. Samples above the limit of quantification were diluted to yield results within the calibrated range. Samples below the lower limit of quantification using the high-range method were reanalyzed using the low-range method. For the low-range method (PharmaNet USA, Inc. SOP TM.563), the lower limit of quantification was 0.050 ng/mL and the upper limit of quantification was 10.000 ng/mL. The intra-assay accuracy during validation ranged from −5.080 to −2.000 %. The intra-assay precision during validation ranged from 4.404 to 12.245 %.
All patients who received at least 1 dose of galunisertib and had samples collected were subjected to PK analyses. The PK parameters for galunisertib were computed by standard non-compartmental methods of analysis using Win Nonlin Professional Edition (version 5.3) on a computer that met or exceeded the minimum system requirements for this program with appropriate and validated software. The parameters reported from the non-compartmental analyses included the maximum plasma concentration (Cmax), area under the curve from zero to 24 h (AUC(0–24)), AUC from zero time to infinity (AUC(0–∞)), half-life volume of distribution (Vd) and clearance (CL).
Clinical benefit in this study has been defined as a patient with either a complete response (CR), partial response (PR), and stable disease (SD) ≥6 cycles. MAIP results from plasma samples taken at baseline were compared between patients completing >6 cycles and ≤6 cycles using ANOVA. The analysis included controlling the false discovery rate to 30 % using the Benjamini-Hochberg method. Boxplots showing the distributions at baseline of the potentially prognostic markers are provided. Observed TGF-β-stimulated pSMAD2 (pSMAD2^+) in PBMCs was normalized by TGF-β-stimulated tSMAD2 [(tSMAD2^+) ^0.6[9, 10]] prior to determining the minimum normalized pSMAD2^+ and calculating percentage inhibition post-baseline for each patient. Baseline and minimum post-baseline values for each patient together with maximum percentage inhibition are presented on a line and scatter plot for each patient in Cohort 3 and summary statistics by time point provided from a standard mixed effects regression model, fitting log normalized pSMAD2^+ to the fixed effects of log baseline normalized pSMAD2^+, nominal time point, dose and their interaction and patient as a random effect.
• Part A (Fig. 1 and Table 2): Non-compartmental PK analysis was performed on 37 of the 39 patients treated in Part A: n=3 in Cohort 1 (40 mg/day); n=4 in Cohort 2 (80 mg/day); n=15 in Cohort 3 (160 mg/day); n=6 in Cohort 4 (240 mg/day); n=9 in Cohort 5 (300 mg/day). […] The terminal half-life was approximately 8 h. At steady state, on Day 14, the median time to maximum concentration (tmax,ss) ranged from 0.5 to 2 h post dose, independent of dose. Formal assessment of time-linear kinetics was not possible, regardless of whether or not the observed exposures of AUC(0–∞) Day 1 and AUC(0–∞) Day 14 were similar. […] Both the maximum observed plasma concentration at steady state (Cmax,ss) and exposure increased with dose as indicated from the statistical analysis of the PK parameters. […] A population PK model was developed based on data in Cohorts 1 through 5 [7]. […] PK profiles of galunisertib following administration of 160 mg/day (Cohort 6) and 300 mg/day (Cohort 7) on Days 6 and 7 were similar.

[1] = Part A, 240 mg/day oral BID, day 14 steady state, Cycle 2, individual patients
[2] = Part A, 7.5-fold dose range, power model

For `Cc1cccc(-c2nn3c(c2-c2ccnc4ccc(C(N)=O)cc24)CCC3)n1` [galunisertib], the “AUC0,∞ individual parameters (n <3)” value [1] was 2500- ^a ng*h/mL, the “Cmax, ss individual parameters (n <3)” value [1] was 610- ^a ng/mL and the “PK profile in patients on enzyme-inducing anti-epileptic medication versus other patients” value (Part A, 3 patients (2 in Cohort 3, 1 in Cohort 4)) was “do not appear to differ”. The “accumulation over the 14-day BID dosing regimen” value (Part A, 5 cohorts) was “no accumulation”, the “estimated ratio of geometric means for AUC(0-∞) between 40 and 300 mg daily” value [2] was 5.61 and the “estimated ratio of geometric means for Cmax,ss between 40 and 300 mg daily” value [2] was 3.99. The “PK profile with co-administration of proton pump inhibitors” value (Part A, 14 patients on PPI, Day 14) was “do not appear to be altered”, the “fold increase of AUC(0–∞) for a doubling of dose” value (Part A, 40–300 mg, power model) was 1.81 fold and the “fold increase of Cmax,ss for a doubling of dose” value (Part A, 40–300 mg, power model) was 1.61 fold. For the same compound, the “duration of measurable plasma concentrations” value (Part A, oral, patients) was “at least 48 h”, the “effect of co-administration of lomustine on galunisertib PK profile” value (Part B, 160 mg/day and 300 mg/day, Days 6 and 7) was “did not appear to alter” and the “dose proportionality of PK” value (any doubling of dose within 40–300 mg, particularly AUC(0-∞)) was “dose-proportional PK”. For the same compound, the Tmax (human, plasma, oral, Part A, steady state, Day 14, post dose, independent of dose, read-out: median time to maximum concentration (tmax,ss)) was 1800 to 7200 s, the Cmax (human, plasma, 40 mg/day, Part A, 40 mg/day oral BID, day 14 steady state, Cycle 1, patients, read-out: Cmax, ss mean (% CV)) was 220 ng/mL and the Cmax (human, plasma, 80 mg/day, Part A, 80 mg/day oral BID, day 14 steady state, Cycle 1, patients, read-out: Cmax, ss mean (% CV)) was 350 ng/mL. The AUC(0-inf) (human, plasma, 160 mg/day, Part A, 160 mg/day oral BID, day 14 steady state, Cycle 1, patients, read-out: AUC0,∞ mean (% CV)) was 2140 ng·h/mL, the Cmax (human, plasma, 160 mg/day, Part A, 160 mg/day oral BID, day 14 steady state, Cycle 1, patients, read-out: Cmax, ss mean (% CV)) was 630 ng/mL and the AUC(0-inf) (human, plasma, 160 mg/day, Part A, 160 mg/day oral BID, day 14 steady state, Cycle 2, patients, read-out: AUC0,∞ mean (% CV)) was 2430 ng·h/mL. For the same compound, the Cmax (human, plasma, 160 mg/day, Part A, 160 mg/day oral BID, day 14 steady state, Cycle 2, patients, read-out: Cmax, ss mean (% CV)) was 790 ng/mL, the AUC(0-inf) (human, plasma, 240 mg/day, Part A, 240 mg/day oral BID, day 14 steady state, Cycle 1, patients, read-out: AUC0,∞ mean (% CV)) was 3060 ng·h/mL and the Cmax (human, plasma, 240 mg/day, Part A, 240 mg/day oral BID, day 14 steady state, Cycle 1, patients, read-out: Cmax, ss mean (% CV)) was 660 ng/mL. For the same compound, the AUC(0-inf) (human, plasma, 240 mg/day, Part A, 240 mg/day oral BID, day 14 steady state, Cycle 2, individual patients, read-out: AUC0,∞ individual parameters (n <3)) was 2900 ng·h/mL, the Cmax (human, plasma, 240 mg/day, Part A, 240 mg/day oral BID, day 14 steady state, Cycle 2, individual patients, read-out: Cmax, ss individual parameters (n <3)) was 520 ng/mL and the AUC(0-inf) (human, plasma, 300 mg/day, Part A, 300 mg/day oral BID, day 14 steady state, Cycle 1, patients, read-out: AUC0,∞ mean (% CV)) was 3730 ng·h/mL. It also gave a Cmax (human, plasma, 300 mg/day, Part A, 300 mg/day oral BID, day 14 steady state, Cycle 1, patients, read-out: Cmax, ss mean (% CV)) of 990 ng/mL, an AUC(0-inf) (human, plasma, 300 mg/day, Part A, 300 mg/day oral BID, day 14 steady state, Cycle 2, patients, read-out: AUC0,∞ mean (% CV)) of 2930 ng·h/mL and a Cmax (human, plasma, 300 mg/day, Part A, 300 mg/day oral BID, day 14 steady state, Cycle 2, patients, read-out: Cmax, ss mean (% CV)) of 800 ng/mL. The half-life (human, plasma, Part A, oral, patients, read-out: terminal half-life (converted)) was ~8 h, the “between-patient coefficient of variation for AUC(0-∞) at steady state” value (pooled across the 5 cohorts) was 42% and the “between-patient coefficient of variation for Cmax,ss” value (pooled across the 5 cohorts) was 55%. The “within-patient coefficient of variation for AUC(0-∞) at steady state” value (pooled across the 5 cohorts) was 29% and the “within-patient coefficient of variation for Cmax,ss” value (pooled across the 5 cohorts) was 31%.
